# Measured values reported in patent US11969470B2, “Topiramate compositions and methods of making and using the same” (Regents of the University of Minnesota, priority 2006, dated 2024).
# How the values were obtained:
# [1] = tested on: hypoxic-ischemic white matter injury; conditions: administration post-insult in vivo; cited from earlier work
# [2] = Open labeled single dose intravenous [13C]6-TPM/CAPTISOL study in adult patients on maintenance oral topiramate (pharmacokinetics and safety); assay type: in vivo, human; conditions: for BP changes / EKG changes / Injection site irritation / Other adverse events / Pulse changes / Bioavailability (fraction of oral dose absorbed, AUCoral vs AUCiso) / Clearance / Distribution volume / Half life: IV dose 25 mg
# Protocol: This was an open labeled, single dose study in adult patients on a maintenance dose of topiramate for treatment of either migraines or epilepsy.
# Patients were instructed to take their evening topiramate dose the day before the study, then fast until after administration of study drug. On the day of the study, subjects were admitted to University of Minnesota General Clinical Research Center where a neurologist performed a brief physical and neurological exam, vital signs were recorded, an ECG strip was obtained, indwelling catheters were placed in the left and right forearms, and blood samples were drawn for baseline laboratory tests.
# A baseline assessment of topiramate toxicity was performed using the following criteria: ataxia and nystagmus: 0=none, 1=mild, 2=severe. As used herein, “ataxia” is classified as “mild”—for unsteady with tandem gait testing, but able to perform without assistance, or as “severe”—unable to perform tandem gait testing without assistance
# The [^13C]6-TPM was administered into the right arm catheter, while blood samples for laboratory tests were drawn from the left arm. Laboratory chemistries included albumin, blood chemistries, kidney and liver function test, and genotyping for drug disposition. A 25 mg [^13C]6-TPM dose was then infused over 10-20 minutes. The exact dose administered was determined gravimetrically from the pre- and post-dose syringe weights. At the end of the infusion, patients took their prescribed oral morning dose; thereafter they resumed their regular dosing regimen. Blood samples for pharmacokinetic analysis were taken at 0, 5 minutes, 15 minutes, 30 minutes, 1 hour, 2 hours, 4 hours, 6 hours, 10 hours, 24 hours, 48 hours, 72 hours and 96 hours after intravenous administration of the topiramate. Urine was collected from 0-24 hours for analysis of the parent drug to determine renal clearance. Urine volumes were measured and 15 mL aliquots were stored at −80° C. until analysis.
# Topiramate was detected using a LC/MS method employing the electrospray ionization (ESI) and negative scan mode. This method is designed to measure both unlabeled topiramate and the stable-isotope topiramate using a negative ESI and SIM mode of liquid chromatograph mass spectrometer. The analytes were separated using ZORBAX® LC8/LC18 and a mobile phase consisting of ammonium acetate buffer and methanol. The data generated using CHEMSTATION® software (Agilent) and quantified using deuterated topiramate (“TPM-d12”, internal standard). Patient samples were run along with a 7-concentration standard curve (run in triplicate) and nine quality control samples (low, med and high also run in triplicates), analyzed in human plasma using liquid extraction with methyl-tert-butylether and negative ion electrospray mass spectrometry. The quantitative analysis was performed using selective ion monitoring mode for topiramate at m/z=338 and m/z=350 for TPM-d12 in the negative mode. The unlabeled topiramate calibration curve ranged from 0.05 μg/mL to 10 μg/mL.
# Both stable-isotope topiramate and non-labeled topiramate concentration-time data was analyzed by non-compartmental methods to obtain AUC, clearance, half-life, and volume of distribution data. The AUC was determined by the trapezoidal rule and the terminal half-life was determined by linear regression of the terminal phase on log concentration vs. time plots. WINNONLIN® (Tripos L.L.P.), a pharmacokinetic data analysis package was used to fit the data to standard pharmacokinetic models (one and two-compartment models).
# Elimination rate constant (kel): kel was determined by the best fit of the post-infusion isotope concentration-time data.
# AUCiso=AUC0-96 hrs+Cp96 hrs/kel
# Distribution Volume at Steady State (Vdss): Vdss was determined as follows: Vdss=Doseiso*AUMC/AUC where AUMC is the area under the first moment curve, and calculated by determining the area under the curve of a plot of the product of concentration and time versus time from zero time to infinity. […]
# AMPA-kainate receptor = conditions: developing oligodendrocytes; similar to NBQX; cited from earlier work
# [3] = cited from earlier work
# [4] = Topiramate phase solubility study with the cyclodextrin CAPTISOL
# Protocol: A phase solubility study was conducted with the cyclodextrin CAPTISOL® and topiramate to evaluate the extent of solubilization of the drug by the derivatized cyclodextrin.
# Solutions containing increasing amounts of dissolved CAPTISOL® brand of sulfobutylether-β-cyclodextrin were prepared and added to small glass vials. Excess solid topiramate was added to each vial and the vials were capped, vortexed and placed in constant agitation for five days at room temperature (about 23° C. to about 25° C.).
# After the multi-day equilibration period, the vials were centrifuged (twice at 693×g, 25° C.) and aliquots were taken from the clear supernatant solutions. The aliquots were diluted 1:3 (1:5.67 for 40% cyclodextrin CAPTISOL® solutions) with mobile phase and analyzed by HPLC for topiramate content.
# • HPLC: Dionex • Detection: Refractive Index Detector • Column: SB-Phenyl (5 μm) 250 mm×4.6 mm • Column Temperature: 35° C. • Mobile Phase: 40:60 (MeOH:Water) • Flow Rate: 1.0 mL/min isocratic • Run Time: 30 minutes • Sample Solvent: Mobile phase • Injection Volume: 50 μL • Retention Time: ˜12.5 minutes Mobile Phase Preparation
# [5] = administered parenterally, orally and via inhalation; compared with β-cyclodextrin; cited from earlier work
# [6] = cited from earlier work; remark: listed apart in the source
# [7] = adult patients, summary of three subjects
# [8] = subject TUMN1, oral dose 50 mg b.i.d.
# [9] = subject TUMN2, oral dose 100 mg q.d.
# [10] = subject TUMN3, oral dose 25 mg b.i.d.
compound,measurement,setting,value
"CC1(C)O[C@@H]2[C@@H](CO[C@@]3(COS(N)(=O)=O)OC(C)(C)O[C@@H]23)O1 [Topiramate, 2,3:4,5-di-O-isopropylidene-β-D-fructopyranose sulfamate]",effect on selective hypoxic-ischemic white matter injury,[1],protective against selective hypoxic-ischemic white matter injury
same,distribution volume for intravenously administered topiramate,[2]; [7],approximately 0.7 L/kg
same,oral absorption,[2]; [7],approximately 100%
same,BP changes,[2]; subject TUMN1,None
same,EKG changes,[2]; subject TUMN1,None
same,Injection site irritation,[2]; subject TUMN1,None
same,Other adverse events,[2]; subject TUMN1,None
same,Pulse changes,[2]; subject TUMN1,None
same,"Bioavailability (fraction of oral dose absorbed, AUCoral vs AUCiso)",[2]; [8],102%
same,Clearance,[2]; [8],1.01 L/h
same,Distribution volume,[2]; [8],0.78 L/kg
same,Half life,[2]; [8],30.5 h
same,BP changes,[2]; subject TUMN2,None
same,EKG changes,[2]; subject TUMN2,None
same,Injection site irritation,[2]; subject TUMN2,None
same,Other adverse events,[2]; subject TUMN2,None
same,Pulse changes,[2]; subject TUMN2,None
same,"Bioavailability (fraction of oral dose absorbed, AUCoral vs AUCiso)",[2]; [9],106%
same,Clearance,[2]; [9],1.07 L/h
same,Distribution volume,[2]; [9],0.68 L/kg
same,Half life,[2]; [9],28.4 h
same,BP changes,[2]; subject TUMN3,None
same,EKG changes,[2]; subject TUMN3,None
same,Injection site irritation,[2]; subject TUMN3,None
same,Pulse changes,[2]; subject TUMN3,None
same,Other adverse events,"[2]; subject TUMN3, cell wraps: Vasovagal response during IV line placement",Vasovagal
same,"Bioavailability (fraction of oral dose absorbed, AUCoral vs AUCiso)",[2]; [10],109%
same,Clearance,[2]; [10],1.11 L/h
same,Distribution volume,[2]; [10],0.70 L/kg
same,Half life,[2]; [10],38.0 h
same,"effect on AMPA-kainate receptor-mediated cell death and calcium influx, kainate-evoked currents",AMPA-kainate receptor,attenuates
same,bioavailability of an oral topiramate dose,"[3]; oral administration, previously found",about 80%
same,oral dose excreted in the urine as unchanged drug,[3]; oral administration,about 70%
same,higher clearance in pediatric patients compared to adults,[3]; pediatric patients vs adults,50%
same,intrinsic solubility,"[4]; in water in the absence of cyclodextrin, room temperature",7860 µg/mL
same,phase solubility type,[4]; topiramate in CAPTISOL solutions in water,Type A-linear
sulfobutylether-β-cyclodextrin [CAPTISOL®],nephrotoxicity,[5],does not exhibit the nephrotoxicity associated with β-cyclodextrin
same,water solubility,[6],> 90 g per 100 mL
